Assay results taken from patent US9694087B2, “Development of novel macromolecule transduction domain with improved cell permeability and method for using same” (priority 2011, dated 2017).
Where a SMILES comes first, the peptide text is derived from it. Where no end group is shown, it is not given here. The star is where a group is joined. X1 = O=C(C=Cc1ccc(O)cc1)*

Key:
human skin = experiment: Primary stimulus test using human skin (patch test); assay type: in vivo; settings: overall evaluation from Table 4
Experimental: To confirm safety of the modified MTD (M1067) synthesized in Example 4, the modified MTD (M1067)-coumaric acid and the modified MTD (M1067)-acetyl pentapeptide synthesized in Examples 12-1 and 12-2, a primary stimulus test using human skin was performed. The test was conducted by a specialized clinical research organization, Dermapro, and the clinical composition was prepared as will be described below. 30 or more subjects meeting standards for the clinical test and not falling under exclusion standards were selected. Sample materials were applied to backs of the subjects, and removed after 48 hours. The test sites were observed 30 minutes and 24 hours later, after the removal.
The skin evaluation was performed by the Frosch & Kligman method (Frosch P. J and Kligman A. M. J Am Acad Dermatol, 1(1):35-41 (1979)) and standards shown in Table 3 reflecting the Cosmetic, Toiletry, and Fragrance Association (CTFA) guidelines (The Cosmetic, Toiletry and Fragrance Association, Inc. Washington, D.C. 20005 (1981)), average degrees of reaction after 48 and 72 hours were compared, and results were determined based on the average degree of reaction of each composition.

HeLa cells = experiment: Visible cell permeability by confocal microscopy, cervix adenocarcinoma cells; assay type: cell-based, human; settings: 5 μM, 1 hour, FIG. 10
Experimental: Cell permeability of HeLa cells (HeLa cell, Human cervix adenocarcinoma, Cat No. CCL-2, ATCC, USA) derived from Human cervix adenocarcinoma as cancer-derived cells was compared using a confocal microscope (Carl Zeisse, Germany).
Particularly, before a test, the HeLa cells were cultured in a 12-well culture plate with a glass cover slip for 24 hours. The HeLa cells were cultured in a DMEM medium containing 10% fetal bovine serum (FBS), and 1% penicillin/streptomycin (10,000 units penicillin and 10,000 μg/mL streptomycin, invitrogen), in a humidified atmosphere with 5% CO2 at 37° C. After 5 μM of peptides was treated to the […] for 1 hour, the cells were fixed with 4% paraformaldehyde (PFA) at room temperature for 20 minutes to observe the cell permeability using a confocal microscope.
To directly detect internalized MTD-FITC, the cells were washed three times with phosphoric acid buffer and 5 μM of 4′,6-diamidino-2-phenylindole (DAPI), which is a nucleus fluorescence staining solution, was counter-stained. […] In addition, an original form of the cell was observed using a nomarski filter with a confocal microscope, and FITC fluorescence and DAPI fluorescence were observed using a filter suitable for a fluorochrome.

ICR mice = experiment: In vivo epithelial tissue (skin) permeability by confocal microscopy; design: species or system mouse; settings: FITC-labelled, applied on gauze to back skin, 1, 3, 6 and 12 hours; FIG. 12
Experimental: After 1, 3, 6, and 12 hours, the mice were sacrificed by cervical dislocation, and skin at the drug-applied parts was extracted. Afterward, the skin was put in 4% paraformaldehyde for 24 hours to fix a tissue and then prepared in a 6 μm cryosection to form a slide. […] The stained tissue was washed again three times with PBS buffer for 10 minutes, fixed with mounting media, and observed by confocal microscopy.

Compound | evaluation in the human skin primary stimulus test (human skin) | intracellular localization of the FITC-peptide (HeLa cells) | epithelial permeation (ICR mice)
CSCC[C@H](N)C(=O)N[C@@H](CCCNC(=N)N)C(=O)N[C@@H](C)C(=O)N[C@@H](C)C(=O)N[C@@H](C)C(=O)N1CCC[C@H]1C(=O)N[C@@H](C)C(=O)N[C@H](C(=O)N[C@@H](C)C(=O)N[C@@H](C)C(=O)O)C(C)C [M1067] (H-MRAAAPAVAA-OH) | low-stimuli materials |  | 
CSCC[C@H](NC(=O)[C@H](CCCNC(=N)N)NC(=O)[C@H](C)NC(=O)[C@H](C)NC(=O)[C@H](C)NC(=O)[C@@H]1CCCN1C(=O)[C@H](C)NC(=O)[C@@H](NC(=O)[C@H](C)NC(=O)[C@H](C)NC(=O)C=Cc1ccc(O)cc1)C(C)C)C(=O)O [modified MTD (M1067)-coumaric acid] (X1-AAVAPAAARM-OH) | low-stimuli materials |  | 
GRKKRRQRRR (also: FITC label, place not given here) [Tat, used FITC-labelled, reference compound] |  | attached to an outside of the cell membrane | epithelial permeation was not induced
M1103: modified MTD having an amino acid sequence of SEQ. ID. NO: 17 (MRLALPVLLLA; MTD 1103 Amino Acid Sequence) |  | apparently distributed into a cytoplasm | 
Met Arg Ala Ala Ala Pro Ala Val Ala Ala Lys*Ther Ther Lys Ser [modified MTD (M1067)-acetyl pentapeptide] | low-stimuli materials |  | 
